{"source": "paper PMC6444188", "about": "“Systemic Administration of Avian Defensin 7: Distribution, Cellular Target, and Antibacterial Potential in Mice” (Frontiers in Microbiology, 2019)", "origin": "cited, not measured here", "key": {"S. Typhimurium": {"system": "S. Typhimurium", "description": "The ability of AvBD7 to reduce bacterial load in the liver of Salmonella-infected animals is in agreement with the distribution of this defensin to this organ. Indeed, even if most part of the fluorescence-labeled AvBD7 injected in the peritoneal cavity of mice reached bloodstream, kidneys and was eliminated through the urinary tract, a substantial amount was found in the liver, the second most fluorescent organ after the kidneys."}, "S. Typhi": {"system": "S. Typhi", "settings": "intraperitoneal mouse model of salmonellosis; ref Maiti et al., 2014", "description": "There is a lack of knowledge on the ability of defensins to exert antimicrobial activity toward MDR bacterial strains. […] There are several mouse salmonellosis models available to assess vaccine and antimicrobials efficacy ([Higginson et al., 2016]). These range from models of colonization or lethality, through infection by the oral, ..."}, "proteases": {"system": "proteases", "description": "AvBDs are characterized by cationicity and structure with the typical beta-sheet stabilized by three disulfide bonds between six highly conserved cysteines while primary sequences are diverse ([Derache et al., 2012])."}, "[1]": {"settings": "30 mg/kg i.p., S. Typhimurium-infected mice, ref Benincasa et al., 2010"}}, "note": "Ends that are not written are not given here.", "data": [{"substance": "Bac7: proline-rich antimicrobial peptide (RRIRPRPPRLPRPRPRPLPFPRPGPRPIPRPLPFP; Bac7; UniProt P19661 131-165, looked up, fragment)", "values": [{"measurement": "effect on liver bacterial load", "setting": "S. Typhimurium; [1]", "result": "without significant reduction of the liver bacterial load"}, {"measurement": "effect on mice survival", "setting": "S. Typhimurium; [1]", "result": "beneficial effect on mice survival"}, {"measurement": "time to elimination following i.p. injection", "setting": "S. Typhimurium; mouse, in vivo, ip", "result": "≤ 5", "unit": "h"}]}, {"substance": "HBD1: human beta-defensin (DHYNCVSSGGQCLYSACPIFTKIQGTCYRGKAKCCK; ends and bridges not checked; cysteine pairing not given here; UniProt P60022 33-68, looked up)", "values": [{"measurement": "effect on disease and bacterial load", "setting": "S. Typhi", "result": "efficient in attenuating the disease and the bacterial load"}]}, {"substance": "HBD3: human beta-defensin (GIINTLQKYYCRVRGGRCAVLSCLPKEEQIGKCSTRGRKCCRRKK; ends and bridges not checked; cysteine pairing not given here; UniProt P81534 23-67, looked up)", "values": [{"measurement": "stability toward proteases", "setting": "proteases", "result": "can be inactivated by proteases"}]}]}
